Assay results: patent US20260098025A1, “DIMERIC COMPOUNDS AS INHIBITORS OF GLYCOGEN SYNTHASE 1 (GYS1) AND METHODS OF USE THEREOF” (Maze Therapeutics, Inc., priority 2022, published 2026)

These molecules were tested against T1, recombinant hGYS1/GN1 protein (Homo sapiens, UniProt P13807) (assay: GYS1 coupled enzyme assay (PK/LDH, NADH absorbance at 340 nm)). Details: geometric mean of at least 2 assay runs on separate days; hGYS1/GN1 50 nM, Glucose-6-Phosphate 1 mM, UDP-Glucose 0.8 mM.
T1 sequence (P13807 1-737): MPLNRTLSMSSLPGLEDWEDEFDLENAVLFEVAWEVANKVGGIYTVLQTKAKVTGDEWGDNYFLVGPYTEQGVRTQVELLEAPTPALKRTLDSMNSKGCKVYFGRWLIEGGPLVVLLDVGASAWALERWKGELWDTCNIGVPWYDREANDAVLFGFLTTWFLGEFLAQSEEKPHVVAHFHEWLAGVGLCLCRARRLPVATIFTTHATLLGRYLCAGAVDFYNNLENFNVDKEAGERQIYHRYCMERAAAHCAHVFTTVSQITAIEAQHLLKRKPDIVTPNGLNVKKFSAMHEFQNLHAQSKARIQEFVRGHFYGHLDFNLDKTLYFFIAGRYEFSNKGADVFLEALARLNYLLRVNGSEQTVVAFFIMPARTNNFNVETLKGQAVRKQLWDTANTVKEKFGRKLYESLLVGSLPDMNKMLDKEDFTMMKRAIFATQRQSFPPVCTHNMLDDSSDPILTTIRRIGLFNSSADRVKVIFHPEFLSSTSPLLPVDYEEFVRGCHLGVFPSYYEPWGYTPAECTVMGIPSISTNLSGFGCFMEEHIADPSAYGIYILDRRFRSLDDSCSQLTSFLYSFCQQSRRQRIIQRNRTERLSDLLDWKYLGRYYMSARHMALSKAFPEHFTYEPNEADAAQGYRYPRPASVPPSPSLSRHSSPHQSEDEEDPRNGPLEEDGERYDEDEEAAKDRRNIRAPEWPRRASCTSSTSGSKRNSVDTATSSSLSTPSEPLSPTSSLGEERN
T1 sequence (P46976 1-350 partner): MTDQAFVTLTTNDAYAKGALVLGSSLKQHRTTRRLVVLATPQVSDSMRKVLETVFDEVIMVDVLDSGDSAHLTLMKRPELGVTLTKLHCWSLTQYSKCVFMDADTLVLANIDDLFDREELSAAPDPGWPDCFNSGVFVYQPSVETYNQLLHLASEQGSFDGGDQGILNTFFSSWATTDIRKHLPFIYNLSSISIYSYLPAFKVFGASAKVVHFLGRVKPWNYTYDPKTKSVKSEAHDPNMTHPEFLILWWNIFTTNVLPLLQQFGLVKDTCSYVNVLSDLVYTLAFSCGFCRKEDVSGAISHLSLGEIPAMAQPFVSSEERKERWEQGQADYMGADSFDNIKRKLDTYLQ
Assay type: biochemical
Description: The GYS1 coupled enzyme assay is a kinetic biochemical assay that indirectly quantifies the rate of glycogen synthesis by coupling the conversion of GYS1 substrate UDP-glucose into UDP with downstream enzymatic reactions. UDP is released from UDP-glucose as glucose monomers are linked into the growing glycogen strand by GYS1. The coupled assay then proceeds with pyruvate kinase utilizing UDP and phospho(enol)pyruvate (PEP) to form pyruvate. Lactate dehydrogenase then converts pyruvate and NADH into lactate and NAD+. Oxidation of NADH to NAD+ can be measured continuously with a plate reader by quantifying the decrease in NADH absorbance at 340 nm over time.
Compounds that inhibit the hGYS1 enzyme and, subsequently, the downstream conversion of NADH to NAD+, were tested using assay ready plates (black, clear bottom 384 well plates) in a final DMSO reaction volume of 2.5% DMSO. The Assay Buffer contained 50 mM Tris pH 7.5, 2 mM MgCl2, and 100 mM KCl. Fresh stocks of BSA at a final concentration of 0.02% and TCEP at 1 mM were added before splitting buffer into hGYS1 buffer and substrate buffer. To the hGYS1 buffer, rabbit liver glycogen was added at a final concentration of 0.2% glycogen. Glucose-6-Phosphate was added at 1 mM, recombinant hGYS1/GN1 protein was added at 50 nM to the substrate buffer, phosphoenolpyruvate (PEP) was added at 2 mM, UDP-Glucose was added at 0.8 mM, NADH) was added at 0.6 mM, and Pyruvate Kinase/Lactate Dehydrogenase was added at 20 units/mL. The reaction was initiated by mixing hGYS1 buffer and substrate buffer at a 1:1 ratio. Both buffers were plated using a liquid dispensing device with hGYS1 buffer plated first followed by the substrate buffer. Plates were spun briefly to eliminate air bubbles and are immediately read in continuous mode at an absorbance of 340 nm, for 10 time points in one-minute increments, for a total of 10 minutes. The slope from these 10 time points was normalized to the positive and negative control wells. The duplicate % inhibition values are then averaged and fit to a Hill equation for dose response according to the Levenberg-Marquardt algorithm with the Hill equation maximum set to 100 and the minimum set to 0.
The results are shown in Table 2 below, which reports the IC50 of each compound. Unless otherwise specified, IC50 values are reported as the geometric mean of at least 2 assay runs on separate days. Each run represents the average of a technical replicate, where each compound was assayed twice in the same plate. As shown in the table below, the compounds of the present invention are potent inhibitors of human GYS1. A superscript “#” symbol in Table 2 indicates results from a single assay run.
Note that, in Table 2, the compounds are referred to by the corresponding Compound No. in Table 1, which is also referred to in the synthetic examples.

IC50 | SMILES
4.9 nM | Cc1cn(CC(=O)N2C[C@H](F)C[C@H]2C(=O)N[C@@H](c2ccccc2)c2ccc(C3CC3)c(F)n2)c(=O)n(CCOCCn2c(=O)c(C)cn(CC(=O)N3C[C@H](F)C[C@H]3C(=O)N[C@@H](c3ccccc3)c3ccc(C4CC4)c(F)n3)c2=O)c1=O [Compound 14, (2S,2′S,4R,4′R)-1,1′-(2,2′-((oxybis(ethane-2,1-diyl))bis(5-methyl-2,4-dioxo-3,4-dihydropyrimidine-3,1(2H)-diyl))bis(acetyl))bis(N-((S)-(5-cyclopropyl-6-fluoropyridin-2-yl)(phenyl)methyl)-4-fluoropyrrolidine-2-carboxamide)]
7.5 nM | CN(CCOCCOCCOCC(=O)N1C[C@H](F)C[C@H]1C(=O)N[C@@H](c1ccccc1)c1ccc(C2CC2)c(F)n1)CCOCCOCC(=O)N1C[C@H](F)C[C@H]1C(=O)N[C@@H](c1ccccc1)c1ccc(C2CC2)c(F)n1 [Compound 17, (2S,2′S,4R,4′R)-1,1′-(9-methyl-3,6,12,15,18-pentaoxa-9-azaicosanedioyl)bis(N-((S)-(5-cyclopropyl-6-fluoropyridin-2-yl)(phenyl)methyl)-4-fluoropyrrolidine-2-carboxamide)]
5.3 nM | Cc1cn(CC(=O)N2C[C@H](F)C[C@H]2C(=O)N[C@@H](c2ccccc2)c2ccc(C3CC3)c(F)n2)c(=O)n(CCOCCOCCn2c(=O)c(C)cn(CC(=O)N3C[C@H](F)C[C@H]3C(=O)N[C@@H](c3ccccc3)c3ccc(C4CC4)c(F)n3)c2=O)c1=O [Compound 15, (2S,2′S,4R,4′R)-1,1′-(2,2′-(((ethane-1,2-diylbis(oxy))bis(ethane-2,1-diyl))bis(5-methyl-2,4-dioxo-3,4-dihydropyrimidine-3,1(2H)-diyl))bis(acetyl))bis(N-((S)-(5-cyclopropyl-6-fluoropyridin-2-yl)(phenyl)methyl)-4-fluoropyrrolidine-2-carboxamide)]
23 nM | Cc1cn(CC(=O)N2C[C@H](F)C[C@H]2C(=O)N[C@@H](c2ccccc2)c2ccc(C3CC3)c(F)n2)c(=O)nc1OCCOc1nc(=O)n(CC(=O)N2C[C@H](F)C[C@H]2C(=O)N[C@@H](c2ccccc2)c2ccc(C3CC3)c(F)n2)cc1C [Compound 16, (2S,2′S,4R,4′R)-1,1′-(2,2′-((ethane-1,2-diylbis(oxy))bis(5-methyl-2-oxopyrimidine-4,1(2H)-diyl))bis(acetyl))bis(N-((S)-(5-cyclopropyl-6-fluoropyridin-2-yl)(phenyl)methyl)-4-fluoropyrrolidine-2-carboxamide)]

The remaining lines, values behind:

SMILES | IC50
O=C(N[C@@H](c1ccccc1)c1ccc(C2CC2)c(F)n1)[C@@H]1C[C@@H](F)CN1C(=O)Cn1cc(COCCOc2cn(CC(=O)N3C[C@H](F)C[C@H]3C(=O)N[C@@H](c3ccccc3)c3ccc(C4CC4)c(F)n3)nn2)nn1 [Compound 8, (2S,4R)-N-((S)-(5-cyclopropyl-6-fluoropyridin-2-yl)(phenyl)methyl)-1-(2-(4-(2-((1-(2-((2S,4R)-2-(((S)-(5-cyclopropyl-6-fluoropyridin-2-yl)(phenyl)methyl)carbamoyl)-4-fluoropyrrolidin-1-yl)-2-oxoethyl)-1H-1,2,3-triazol-4-yl)methoxy)ethoxy)-1H-1,2,3-triazol-1-yl)acetyl)-4-fluoropyrrolidine-2-carboxamide] | 5.2 nM
O=C(N[C@@H](c1ccccc1)c1ccc(C2CC2)c(F)n1)[C@@H]1C[C@@H](F)CN1C(=O)COCCOCCOCCOCCOCCOCC(=O)N1C[C@H](F)C[C@H]1C(=O)N[C@@H](c1ccccc1)c1ccc(C2CC2)c(F)n1 [Compound 5, (2S,2′S,4R,4′R)-1,1′-(3,6,9,12,15,18-hexaoxaicosanedioyl)bis(N-((S)-(5-cyclopropyl-6-fluoropyridin-2-yl)(phenyl)methyl)-4-fluoropyrrolidine-2-carboxamide)] | 5.4 nM
O=C(N[C@@H](c1ccccc1)c1ccc(C2CC2)c(F)n1)[C@@H]1C[C@@H](F)CN1C(=O)COCCOCCOCCOCC(=O)N1C[C@H](F)C[C@H]1C(=O)N[C@@H](c1ccccc1)c1ccc(C2CC2)c(F)n1 [Compound 11, (2S,2′S,4R,4′R)-1,1′-(3,6,9,12-tetraoxatetradecanedioyl)bis(N-((S)-(5-cyclopropyl-6-fluoropyridin-2-yl)(phenyl)methyl)-4-fluoropyrrolidine-2-carboxamide)] | 14.6 nM
O=C(N[C@@H](c1ccccc1)c1ccc(C2CC2)c(F)n1)[C@@H]1C[C@@H](F)CN1C(=O)Cn1cc(COCCOCc2cn(CC(=O)N3C[C@H](F)C[C@H]3C(=O)N[C@@H](c3ccccc3)c3ccc(C4CC4)c(F)n3)nn2)nn1 [Compound 7, (2S,2′S,4R,4′R)-1,1′-(2,2′-(((ethane-1,2-diylbis(oxy))bis(methylene))bis(1H-1,2,3-triazole-4,1-diyl))bis(acetyl))bis(N-((S)-(5-cyclopropyl-6-fluoropyridin-2-yl)(phenyl)methyl)-4-fluoropyrrolidine-2-carboxamide)] | 11.2 nM
O=C(N[C@@H](c1ccccc1)c1ccc(C2CC2)c(F)n1)[C@@H]1C[C@@H](F)CN1C(=O)COCCOCC(=O)N1C[C@H](F)C[C@H]1C(=O)N[C@@H](c1ccccc1)c1ccc(C2CC2)c(F)n1 [Compound 4, (2S,2′S,4R,4′R)-1,1′-(2,2′-(ethane-1,2-diylbis(oxy))bis(acetyl))bis(N-((S)-(5-cyclopropyl-6-fluoropyridin-2-yl)(phenyl)methyl)-4-fluoropyrrolidine-2-carboxamide)] | 8910 nM
O=C(COCCOCCOCCOCCOCCOCCOCCOCCOCCOCCOCCOCC(=O)N[C@@H](c1ccccc1)c1ccc(C2CC2)c(F)n1)N[C@@H](c1ccccc1)c1ccc(C2CC2)c(F)n1 [Compound 3, N^1,N^38-bis((S)-(5-cyclopropyl-6-fluoropyridin-2-yl)(phenyl)methyl)-3,6,9,12,15,18,21,24,27,30,33,36-dodecaoxaoctatriacontanediamide] | 5710 nM
O=C(COCCOCCOCCOCCOCCOCCOCCOCCOCCOCCOCC(=O)N[C@@H](c1ccccc1)c1ccc(C2CC2)c(F)n1)N[C@@H](c1ccccc1)c1ccc(C2CC2)c(F)n1 [Compound 6, N^1,N^35-bis((S)-(5-cyclopropyl-6-fluoropyridin-2-yl)(phenyl)methyl)-3,6,9,12,15,18,21,24,27,30,33-undecaoxapentatriacontanediamide] | 7500 nM
O=C(N[C@@H](c1ccccc1)c1ccc(C2CC2)c(F)n1)[C@@H]1C[C@@H](F)CN1C(=O)COCCOCCNCCOCCOCCOCC(=O)N1C[C@H](F)C[C@H]1C(=O)N[C@@H](c1ccccc1)c1ccc(C2CC2)c(F)n1 [Compound 13, (2S,2′S,4R,4′R)-1,1′-(3,6,12,15,18-pentaoxa-9-azaicosanedioyl)bis(N-((S)-(5-cyclopropyl-6-fluoropyridin-2-yl)(phenyl)methyl)-4-fluoropyrrolidine-2-carboxamide)] | > 10000 nM
